Laboratory results published in PMC11866186, “Novel Benzimidazole–Oxadiazole Derivatives as Anticancer Agents with VEGFR2 Inhibitory Activity: Design, Synthesis, In Vitro Anticancer Evaluation, and In Silico Studies” (ACS Omega, 2025).
Like-named read-outs stand apart in the source and are kept apart here.

Assays:
[1] = system: hTERT-HPNE cell line; assay: MTT assay, normal pancreas hTERT-HPNE cells; format: cell-based; conditions: normal human pancreas cells, 24 h, read-out: IC50 against hTERT-HPNE
Description: (§1) By comparing the compounds’ cytotoxic effects against tumor cell lines and normal cell lines, the drug safety parameter for the anticancer activity of the compounds was evaluated, thereby confirming their cytoprotective qualities. In this study, normal human lung (CCD-19Lu) and normal human pancreas (hTERT-HPNE) cell lines were used as controls. The selectivity index (SI) calculated for the compounds tested scales the IC50 values of the compounds against various tumor cell lines with the IC50 values against normal cell lines (Table 2). […] The differential selectivity indices underscore the importance of targeted therapeutic strategies and the potential for these compounds to provide selective anticancer effects with reduced toxicity to normal cells.
(§2) Many analyses are performed to determine cell proliferation. MTT analysis is one of the viability determination tests. According to the working mechanism of the method, the dye containing the tetrazolium ring reacts with the dehydrogenase enzymes in the cells, only to be reduced and broken down by the metabolic cells, turning into water-insoluble formazan crystals. Color changes associated with mitochondrial activity and resulting from the addition of a solvent as a result of the reaction are measured in the microplate reader as optical density data values.[30] Cells were planted in flat-bottomed, 96-well, sterile, lidded, disposable microplates with 1 × 10^4 cells per well in 200 μL of appropriate medium and were allowed to adhere to the plate bottom by incubating for 24 h. At the end of 24 h, 100 μL of medium was withdrawn, and test substances at different concentrations, prepared in 100 μL, were added. Following the substance application, after a 24 h incubation period, 20 μL of stock MTT solution (MTT solution dissolved in 5 mg/mL PBS and filtered before application) was added to each well and protected from light, and the incubation continued for 3 h. Then, the media of the cells were completely withdrawn, and 100 μL of DMSO was added to dissolve the formazan crystals. After shaking in the dark for 15 min, the optical densities (absorbance) of the color changes at 540–570 and 650 nm reference wavelengths were read in the microplate reader. The data were calculated and created in Microsoft Office Excel. For this purpose, first, the blind well value and the control groups of colored substances were removed from the optical readings. The averages of optical densities and % viability values were made from Excel formula calculations, and the results were discussed. The viability of the control group was assumed to be 100%, and all other viability values were calculated based on this (series were run in n = 5 replicates).

[2] = system: A549 cell line; assay: MTT assay, A549 cells; format: cell-based, human; conditions: for IC50: Homo sapiens, A549, MTT, 24 h, read-out: IC50 against A549
Description: (§3) The synthesized compounds 4a–4s were screened for their in vitro anticancer activity via the standard MTT assay using three human tumor cell lines, namely, the human lung adenocarcinoma cell line (A549), the human breast cancer cell line (MCF-7), and the human pancreas cell line (PANC-1). Cisplatin was used as a reference drug. […] When the structures of the compounds are evaluated, it is seen that the compounds are derived from two different sources. There are hydroxyl and methoxy substituents on the phenyl ring attached to the benzimidazole. It has also been derivatized using different groups on the phenyl ring close to oxadiazole. When the activities in the PANC-1 cell line are evaluated, it is seen that the activity of compounds bearing the 2,4-dichloro substituent is especially high.
as §2

[3] = system: CCD-19Lu cell line; assay: MTT assay, normal lung CCD-19Lu cells; format: cell-based; conditions: CCD 19Lu, normal human lung cells, 24 h, read-out: IC50 against CCD-19Lu
Description: as §1, §2

[4] = system: VEGFA; assay: VEGFA immunofluorescent staining in MCF-7 cells; format: cell-based, human; conditions: 24 h treatment, anti-VEGFA antibody, semiquantitative scoring
Description: An endogenous angiogenic growth factor called VEGFA primarily promotes the migration and proliferation of vascular endothelial cells.[2] Fluorescent staining degrees of the MCF-7 cancer cell line, marked with an anti-VEGFA antibody and immunofluorescence technique, were compared under light microscopy (Figure 4). […] Five different areas were selected for each group. All cell nuclei seen in the selected areas are compared with those stained VEGFA positive.
For VEGFA immunofluorescent staining, cells were grown on sterile coverslips in 6-well culture dishes. The cells were purified from the medium and washed with phosphate-buffered saline (PBS) (Sigma-Aldrich, Germany). The washed cells were fixed in ph 7.4% paraformaldehyde (Merk, Germany) for 20 min at room temperature. After fixation, the cells were washed two times with PBS for 5 min. For permeability, the cells were incubated in 0.1% Triton X-100 (Sigma-Aldrich, Germany) solution for 10 min. PBS was then washed for 5 min. After washing, Ultra V Block (Thermo Scientific, PBQ180830, USA) was dropped and waited at room temperature for 30 min to prevent nonspecific binding. […] Fluorescent microscopy (Olympus BX51, Japan) was employed by using suitable filters for fluorescence examination and then by making a registration.

[5] = system: PANC-1 cell line; assay: MTT assay, PANC-1 cells; format: cell-based, human; conditions: for IC50: MTT, 24 h, read-out: IC50 against PANC-1
Description: Cisplatin was used as a reference drug. […] There are hydroxyl and methoxy substituents on the phenyl ring attached to the benzimidazole. It has also been derivatized using different groups on the phenyl ring close to oxadiazole.
as §2

[6] = system: MCF-7 cell line; assay: MTT assay, MCF-7 cells; format: cell-based, human; conditions: Homo sapiens, MCF7, 24 h, read-out: IC50 against MCF-7
Description: as §3, §2

[7] = target: T1, VEGFR2 (Homo sapiens, UniProt P35968); assay: VEGFR2 Kinase Assay Kit inhibition; format: biochemical; conditions: read-out: IC50 against VEGFR2
T1 construct: purchased
T1 sequence (P35968 20-1356): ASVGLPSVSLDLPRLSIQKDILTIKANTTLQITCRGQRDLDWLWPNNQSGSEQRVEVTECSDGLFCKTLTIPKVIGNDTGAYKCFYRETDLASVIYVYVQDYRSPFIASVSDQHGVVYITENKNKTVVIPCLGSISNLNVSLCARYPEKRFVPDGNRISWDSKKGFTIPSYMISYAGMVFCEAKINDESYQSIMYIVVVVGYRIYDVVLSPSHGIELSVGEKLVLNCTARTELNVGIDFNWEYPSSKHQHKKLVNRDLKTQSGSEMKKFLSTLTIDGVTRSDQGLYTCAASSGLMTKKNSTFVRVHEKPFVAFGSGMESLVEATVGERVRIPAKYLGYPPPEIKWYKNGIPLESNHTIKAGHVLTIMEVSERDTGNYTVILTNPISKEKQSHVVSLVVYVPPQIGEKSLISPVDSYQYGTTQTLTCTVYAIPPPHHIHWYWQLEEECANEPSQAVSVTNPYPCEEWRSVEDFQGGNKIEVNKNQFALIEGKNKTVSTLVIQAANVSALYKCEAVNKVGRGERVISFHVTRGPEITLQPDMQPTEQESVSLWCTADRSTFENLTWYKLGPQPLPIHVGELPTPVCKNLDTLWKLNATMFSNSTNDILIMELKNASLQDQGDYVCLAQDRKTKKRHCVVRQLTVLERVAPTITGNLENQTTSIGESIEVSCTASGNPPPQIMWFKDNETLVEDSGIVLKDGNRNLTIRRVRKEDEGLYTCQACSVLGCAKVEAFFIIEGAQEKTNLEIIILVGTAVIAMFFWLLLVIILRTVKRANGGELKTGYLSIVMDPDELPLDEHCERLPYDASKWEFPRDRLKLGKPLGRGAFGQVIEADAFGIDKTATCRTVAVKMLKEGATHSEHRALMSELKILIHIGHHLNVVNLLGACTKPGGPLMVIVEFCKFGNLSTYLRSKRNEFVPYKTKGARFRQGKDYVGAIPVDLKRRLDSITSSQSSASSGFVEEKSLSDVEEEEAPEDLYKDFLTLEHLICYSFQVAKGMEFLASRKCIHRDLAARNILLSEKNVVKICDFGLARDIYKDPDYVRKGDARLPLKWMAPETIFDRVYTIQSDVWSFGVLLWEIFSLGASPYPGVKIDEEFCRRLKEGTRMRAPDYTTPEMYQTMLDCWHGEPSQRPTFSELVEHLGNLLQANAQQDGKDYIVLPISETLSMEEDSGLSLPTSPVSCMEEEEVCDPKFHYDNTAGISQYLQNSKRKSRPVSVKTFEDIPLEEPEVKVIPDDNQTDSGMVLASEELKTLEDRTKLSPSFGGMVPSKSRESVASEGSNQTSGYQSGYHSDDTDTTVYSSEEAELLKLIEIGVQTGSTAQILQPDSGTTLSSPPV
Description: The VEGFR2 Kinase Assay Kit was used for VEGFR2 inhibition. The experiment was performed in vitro according to the kit procedure.[31]

| IC50 [2] | IC50 ([5]; Homo sapiens, PANC-1, 24 h) | IC50 [5] | IC50 [6] | IC50 [7] | SMILES | IC50 [1] | Selectivity index (A549) ([2]; SI = cytotoxicity against CCD-19Lu cells/cytotoxicity against A549 cell line) | IC50 [3] | VEGFA immunolocalization compared with control [4] | Selectivity index (PANC-1) ([5]; SI = cytotoxicity against hTERT-HPNE cells/cytotoxicity against PANC-1 cell line) |
| --- | --- | --- | --- | --- | --- | --- | --- | --- | --- | --- |
| 1.6 µM | 6.7 µM | 6.6 µM | 1.2 µM | 0.502 ± 0.028 µM | COc1ccc(-c2nc3ccc(-c4nnc(SCC(=O)c5ccc(O)c(O)c5)o4)cc3[nH]2)cc1 [4s, 2-((5-(2-(4-Methoxyphenyl)-1H-benzimidazol-6-yl)-1,3,4-oxadiazol-2-yl)thio)-1-(3,4-dihydroxyphenyl)-ethanone] | 38.3 µM | 0.81 | 1.3 µM | less VEGFA immunolocalization | 5.80 |
| 0.3 µM | – | – | 0.5 µM | – | COc1ccc(-c2nc3ccc(-c4nnc(SCC(=O)c5ccc(Cl)cc5Cl)o4)cc3[nH]2)cc1 [4r, 2-((5-(2-(4-Methoxyphenyl)-1H-benzimidazol-6-yl)-1,3,4-oxadiazol-2-yl)thio)-1-(2,4-dichlorophenyl)-ethanone] | 10.9 µM | – | 0.8 µM | less VEGFA immunolocalization | – |
